Source: patent US11572399B2, “Long-acting GIP peptide analogues” (University of Copenhagen, priority 2017, dated 2023)
Several values for one entry are separate records, joined by “and”; a condition that tells them apart may be missing. Equal entries are not always repeated. Peptide text beside a SMILES is read from it. * marks the point of attachment. C16 diacid = O=C(O)CCCCCCCCCCCCCCC(=O)*

Experiments:
human GIP receptor [1] = molecular target: T1, human GIP receptor (Homo sapiens, UniProt P48546); assay: 125I-human GIP competition binding assay, in the presence and absence of 2% HSA; conditions: for Fold change HSA (2%)/Casein (0.1%): IC50 (plus HSA)/IC50 (minus HSA); for Binding (+/−HSA) Fold: fold change +HSA/−HSA;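 on all read-outs here: nonspecific binding taken as radioligand bound to untransfected cells, IC50 obtained from nonlinear regression fits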
T1 construct: host or cells: COS-7, transient transfection (calcium phosphate), cDNA in pCMV-Script
T1 sequence (P48546 22-466): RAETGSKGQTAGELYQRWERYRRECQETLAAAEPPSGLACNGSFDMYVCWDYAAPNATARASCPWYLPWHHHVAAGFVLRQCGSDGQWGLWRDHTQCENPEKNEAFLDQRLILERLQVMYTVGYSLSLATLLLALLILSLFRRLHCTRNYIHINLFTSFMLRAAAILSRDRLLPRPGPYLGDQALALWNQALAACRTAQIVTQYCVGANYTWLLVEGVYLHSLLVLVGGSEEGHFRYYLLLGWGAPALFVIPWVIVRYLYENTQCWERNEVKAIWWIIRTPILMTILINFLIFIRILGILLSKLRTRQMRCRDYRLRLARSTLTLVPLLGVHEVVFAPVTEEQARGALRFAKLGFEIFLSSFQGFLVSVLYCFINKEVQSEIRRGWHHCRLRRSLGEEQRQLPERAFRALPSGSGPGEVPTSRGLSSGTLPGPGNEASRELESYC

human GIP receptor [2] = molecular target: T1, human GIP receptor; assay: cAMP accumulation assay, antagonism of a GIP-mediated cAMP response (50-80% of max); type: cell-based; conditions: for Fold change of IC50 versus GIP(5-30)NH2: fold change of IC50 from GIP(5-30)NH2
Procedure: The day after, the cells were washed twice with Hepes buffered saline (HBS) buffer and incubated with HBS and 1 mM 3-isobutyl-1-methylxanthine (IBMX) for 30 min at 37° C. […] The HitHunter™ cAMP XS assay (DiscoveRx) was carried out according to the manufacturer's instructions.

human GIP receptor [3] = molecular target: T1, human GIP receptor; assay: cAMP accumulation assay, agonism (ligand alone); type: cell-based; conditions: Table 1; for Emax: COS-7, intrinsic cAMP activity, COS-7 cells
[4] = binding in 0.1% casein (absence of HSA), log value, read-out: logIC50 0.1% casein (converted)
[5] = heterologous competition binding, transiently transfected COS-7 cells expressing the human GIP receptor, read-out: Binding
[6] = transiently transfected COS-7 cells, Table 1 and text, read-out: cAMP antagonism nM (IC50, antagonistic potency)

Structure (SMILES)	Fold change HSA (2%)/Casein (0.1%) (human GIP receptor [1])	Ki (human GIP receptor [1]; absence of HSA)	IC50 (human GIP receptor [1]; [4])	Binding (+/−HSA) Fold (human GIP receptor [1])	IC50 (human GIP receptor [1]; [5])	Fold change in affinity, IC50 (plus HSA)/IC50 (minus HSA) (human GIP receptor [1]; presence vs absence of 2% HSA, proxy for albumin binding)	Ability to antagonize the GIP-mediated cAMP response (in words) (human GIP receptor [2])	Fold change of IC50 versus GIP(5-30)NH2 (human GIP receptor [2])	IC50 (human GIP receptor [2]; [6])	Emax (human GIP receptor [3])	IC50 (human GIP receptor [2]; antagonism of GIP-mediated cAMP response, COS-7 cells, read-out: cAMP accumulation IC50)	Ki (human GIP receptor [1]; presence of 2% HSA)	EC50 (human GIP receptor [3]; given as log EC50 (negative sign), read-out: cAMP agonism EC50 (log) (converted))
CC[C@H](C)[C@H](NC(=O)[C@H](CCCCNC(=O)CCCCCCCCCCCCCCC(=O)O)NC(=O)[C@H](Cc1ccc(O)cc1)NC(=O)[C@H](CC(=O)O)NC(=O)[C@H](CO)NC(=O)[C@@H](NC(=O)[C@H](Cc1ccccc1)NC(=O)[C@@H](N)[C@@H](C)O)[C@@H](C)CC)C(=O)N[C@@H](C)C(=O)N[C@@H](CCSC)C(=O)N[C@@H](CC(=O)O)C(=O)N[C@@H](CCCCN)C(=O)N[C@H](C(=O)N[C@@H](Cc1c[nH]cn1)C(=O)N[C@@H](CCC(N)=O)C(=O)N[C@@H](CCC(N)=O)C(=O)N[C@@H](CC(=O)O)C(=O)N[C@@H](Cc1ccccc1)C(=O)N[C@H](C(=O)N[C@@H](CC(N)=O)C(=O)N[C@@H](Cc1c[nH]c2ccccc12)C(=O)N[C@@H](CC(C)C)C(=O)N[C@@H](CC(C)C)C(=O)N[C@@H](C)C(=O)N[C@@H](CCC(N)=O)C(=O)N[C@@H](CCCCN)C(N)=O)C(C)C)[C@@H](C)CC [AT173, [hGIP(5-30)NH2[S11K]-C16diacid/11]] (H-TFISDYK(C16 diacid)IAMDKIHQQDFVNWLLAQK-NH2; N-terminus assumed)	7.4	6 nM	7.94 nM	9.7	8 nM	7.4 fold	highest antagonistic potencies	0.3	10 nM	0%	–	–	–
CC[C@H](C)[C@H](NC(=O)[C@H](CO)NC(=O)[C@H](Cc1ccc(O)cc1)NC(=O)[C@H](CC(=O)O)NC(=O)[C@H](CO)NC(=O)[C@@H](NC(=O)[C@H](Cc1ccccc1)NC(=O)[C@@H](N)[C@@H](C)O)[C@@H](C)CC)C(=O)N[C@@H](C)C(=O)N[C@@H](CCSC)C(=O)N[C@@H](CC(=O)O)C(=O)N[C@@H](CCCCN)C(=O)N[C@@H](CCCCNC(=O)CCCCCCCCCCCCCCC(=O)O)C(=O)N[C@@H](Cc1c[nH]cn1)C(=O)N[C@@H](CCC(N)=O)C(=O)N[C@@H](CCC(N)=O)C(=O)N[C@@H](CC(=O)O)C(=O)N[C@@H](Cc1ccccc1)C(=O)N[C@H](C(=O)N[C@@H](CC(N)=O)C(=O)N[C@@H](Cc1c[nH]c2ccccc12)C(=O)N[C@@H](CC(C)C)C(=O)N[C@@H](CC(C)C)C(=O)N[C@@H](C)C(=O)N[C@@H](CCC(N)=O)C(=O)N[C@@H](CCCCN)C(N)=O)C(C)C [AT178, [hGIP(5-30)NH2[I17K]-C16diacid/17]] (H-TFISDYSIAMDKK(C16 diacid)HQQDFVNWLLAQK-NH2; N-terminus assumed)	3.0	–	63.1 nM	4.5	66 nM	–	–	1	33 nM	0%	27.5 nM	–	–
CC[C@H](C)[C@H](NC(=O)[C@H](CO)NC(=O)[C@H](Cc1ccc(O)cc1)NC(=O)[C@H](CC(=O)O)NC(=O)[C@H](CCCCNC(=O)CCCCCCCCCCCCCCC(=O)O)NC(=O)[C@@H](NC(=O)[C@H](Cc1ccccc1)NC(=O)[C@@H](N)[C@@H](C)O)[C@@H](C)CC)C(=O)N[C@@H](C)C(=O)N[C@@H](CCSC)C(=O)N[C@@H](CC(=O)O)C(=O)N[C@@H](CCCCN)C(=O)N[C@H](C(=O)N[C@@H](Cc1c[nH]cn1)C(=O)N[C@@H](CCC(N)=O)C(=O)N[C@@H](CCC(N)=O)C(=O)N[C@@H](CC(=O)O)C(=O)N[C@@H](Cc1ccccc1)C(=O)N[C@H](C(=O)N[C@@H](CC(N)=O)C(=O)N[C@@H](Cc1c[nH]c2ccccc12)C(=O)N[C@@H](CC(C)C)C(=O)N[C@@H](CC(C)C)C(=O)N[C@@H](C)C(=O)N[C@@H](CCC(N)=O)C(=O)N[C@@H](CCCCN)C(N)=O)C(C)C)[C@@H](C)CC [AT170, [hGIP(5-30)NH2[S8K]-C16diacid/8]] (H-TFIK(C16 diacid)DYSIAMDKIHQQDFVNWLLAQK-NH2; N-terminus assumed)	2.2	–	631 nM	2.2	–	–	–	32.4	–	0%	–	1300 nM	–
CC[C@H](C)[C@H](NC(=O)[C@H](CO)NC(=O)[C@H](Cc1ccc(O)cc1)NC(=O)[C@H](CC(=O)O)NC(=O)[C@H](CO)NC(=O)[C@@H](NC(=O)[C@H](Cc1ccccc1)NC(=O)[C@@H](N)[C@@H](C)O)[C@@H](C)CC)C(=O)N[C@@H](C)C(=O)N[C@@H](CCSC)C(=O)N[C@@H](CC(=O)O)C(=O)N[C@@H](CCCCN)C(=O)N[C@H](C(=O)N[C@@H](Cc1c[nH]cn1)C(=O)N[C@@H](CCC(N)=O)C(=O)N[C@@H](CCCCNC(=O)CCCCCCCCCCCCCCC(=O)O)C(=O)N[C@@H](CC(=O)O)C(=O)N[C@@H](Cc1ccccc1)C(=O)N[C@H](C(=O)N[C@@H](CC(N)=O)C(=O)N[C@@H](Cc1c[nH]c2ccccc12)C(=O)N[C@@H](CC(C)C)C(=O)N[C@@H](CC(C)C)C(=O)N[C@@H](C)C(=O)N[C@@H](CCC(N)=O)C(=O)N[C@@H](CCCCN)C(N)=O)C(C)C)[C@@H](C)CC [AT180, [hGIP(5-30)NH2[Q20K]-C16diacid/20]] (H-TFISDYSIAMDKIHQK(C16 diacid)DFVNWLLAQK-NH2; N-terminus assumed)	3.7	–	–	6.4	–	–	–	1.7	37 nM	0%	–	–	–
CC[C@H](C)[C@H](NC(=O)[C@H](CO)NC(=O)[C@H](Cc1ccc(O)cc1)NC(=O)[C@H](CC(=O)O)NC(=O)[C@H](CO)NC(=O)[C@@H](NC(=O)[C@H](Cc1ccccc1)NC(=O)[C@@H](N)[C@@H](C)O)[C@@H](C)CC)C(=O)N[C@@H](C)C(=O)N[C@@H](CCSC)C(=O)N[C@@H](CC(=O)O)C(=O)N[C@@H](CCCCN)C(=O)N[C@H](C(=O)N[C@@H](Cc1c[nH]cn1)C(=O)N[C@@H](CCC(N)=O)C(=O)N[C@@H](CCC(N)=O)C(=O)N[C@@H](CC(=O)O)C(=O)N[C@@H](Cc1ccccc1)C(=O)N[C@H](C(=O)N[C@@H](CC(N)=O)C(=O)N[C@@H](Cc1c[nH]c2ccccc12)C(=O)N[C@@H](CC(C)C)C(=O)N[C@@H](CCCCNC(=O)CCCCCCCCCCCCCCC(=O)O)C(=O)N[C@@H](C)C(=O)N[C@@H](CCC(N)=O)C(=O)N[C@@H](CCCCN)C(N)=O)C(C)C)[C@@H](C)CC [AT187, [hGIP(5-30)NH2[L27K]-C16diacid/27]] (H-TFISDYSIAMDKIHQQDFVNWLK(C16 diacid)AQK-NH2; N-terminus assumed)	4.7	–	–	18.2	26500 nM	–	–	67.6	2380 nM	25%	–	–	1000 nM and 2510 nM
